# Patent publication US8071654B2, “Inhibitors of thromboxane formation and action” (priority 2000, dated 2011)
# Tests used:
# Format in all cases: cell-based
# [1] = test system: TxB2 formation; assay: metabolism of [3H]-PGH2 to TxB2 by human platelets, TLC; conditions: two doses of PBT-3, TLC profile
# Experimental: 0.5 ml of platelet suspension was added to siliconized glass tubes (four at a time) and heated with magnetic stirring to 37° for 1 min in a platelet aggregometer (PAP-4C). Either vehicle alone (ethanol, 1 μl) or hepoxilin analog was then added, followed two min later by agonist (collagen: 2 μg; PGH2: 100 ng/0.5 ml; U46619: 10 ng/0.5 ml or I-BOP: 2 ng/0.5 ml). The response was recorded for the next 5 min. In experiments where analysis of TxB2 and HHT were to be made by HPLC, the platelet suspension at the end of the experiment was diluted with ethyl acetate, 100 ng of prostaglandin B1 was added as internal standard, and the mixture was acidified to pH 3 with 0.1 N HCl. After centrifugation, the organic layer was separated, washed twice with water to neutrality, and evaporated to dryness. Half of the sample was taken and was resuspended in 1 ml ethyl acetate containing 20 μg ADAM reagent, and was left in the dark for 2 h (38). […] In experiments where the conversion of tritiated PGH2 was to be monitored, the procedure described above was repeated with tritiated PGH2 instead of unlabeled PGH2. After extraction of the sample as described above, the radiolabeled compounds were analyzed by TLC. Dose response curves for varying amounts of test compounds were generated and the data expressed as % inhibition of collagen-induced platelet aggregation. […]
# [2] = test system: Plase A2; assay: AA formed in collagen-treated washed human platelets (Plase A2), HPLC; conditions: for Plase A2 enzyme activity (% of control values, mean ± SD): n = 3
# Experimental: (§1) 0.5 ml of platelet suspension was added to siliconized glass tubes (four at a time) and heated with magnetic stirring to 37° for 1 min in a platelet aggregometer (PAP-4C). Either vehicle alone (ethanol, 1 μl) or hepoxilin analog was then added, followed two min later by agonist (collagen: 2 μg; PGH2: 100 ng/0.5 ml; U46619: 10 ng/0.5 ml or I-BOP: 2 ng/0.5 ml). The response was recorded for the next 5 min. In experiments where analysis of TxB2 and HHT were to be made by HPLC, the platelet suspension at the end of the experiment was diluted with ethyl acetate, 100 ng of prostaglandin B1 was added as internal standard, and the mixture was acidified to pH 3 with 0.1 N HCl. After centrifugation, the organic layer was separated, washed twice with water to neutrality, and evaporated to dryness. Half of the sample was taken and was resuspended in 1 ml ethyl acetate containing 20 μg ADAM reagent, and was left in the dark for 2 h (38). The solvent was then evaporated and the residue was acetylated with a solution of pyridine/acetic anhydride (3/1, v/v) during 16 h at 23°. The reagents were evaporated to dryness and the residue was resuspended in acetonitrile/water for HPLC analysis. In experiments where the conversion of tritiated PGH2 was to be monitored, the procedure described above was repeated with tritiated PGH2 instead of unlabeled PGH2. After extraction of the sample as described above, the radiolabeled compounds were analyzed by TLC. Dose response curves for varying amounts of test compounds were generated and the data expressed as % inhibition of collagen-induced platelet aggregation. Each point was investigated 5 times and statistical analysis of the data was carried out using Macintosh Statview statistical software.
# Measurement of eicosanoids formed by platelets during treatment with collagen or the TP receptor agonists in the presence or absence of PBT-3 was carried out by HPLC after appropriate derivatization with a fluorescent tag (anthracyl diazomethane—ADAM) which forms a fluorescent ester (44). The method was adapted to measure the following compounds: TxB2, HHT, 12-HETE and M. The platelet suspension at the end of the experiment was mixed with ethyl acetate, 100 ng of prostaglandin B1 was added as internal standard and the mixture was acidified to pH 3 with 0.1 N HCl. After centrifugation, the organic layer was separated, washed twice with water to neutrality, and evaporated to dryness. The residue was resuspended in ethyl acetate and half of the sample was taken. It was diluted to 0.2 ml with ethyl acetate containing 20 μg ADAM reagent, and was left in the dark for 2 h. The solvent was then evaporated and the residue was acetylated with a solution of pyridine/acetic anhydride (3/1, v/v) for 16 h at 23°. The reagents were evaporated to dryness and the residue was resuspended in acetonitrile/water for HPLC analysis. Dose response curves for varying amounts of test compounds were generated and the data were expressed as % inhibition of agonist-induced platelet aggregation. Each point was investigated 3 times and statistical analysis of the data was carried out using Macintosh Statview statistical software.
# Analysis of the anthryl (ADAM)-acetate derivative of TxB2, HHT and 12 HETE in the extracted platelet samples was carried out on a Hewlett Packard (1100 series) HPLC to which was attached a Shimadzu fluorescent detector (RF-10AXL). The detector was operated with excitation at 364 nm, emission at 411 nm. […]
# [3] = test system: human platelets; assay: collagen-evoked aggregation of washed human platelets
# Experimental: Venous blood was obtained from healthy human subjects who had not taken NSAID's for at least two weeks. Blood was drawn into plastic syringes containing ACD. […] The platelet rich plasma was transferred into fresh plastic tubes and centrifuged at 400×g for 5 min. […] A platelet count was made, which determined the volume of platelet suspension needed to make up 350×10^6 cells for each measurement. The aliquot was diluted with medium to make 0.5 ml/assay/cuvette. Appropriate calibration of the aggregometer (PAP-4C) for 0% and 100% transmission was carried out through the use of a sample of platelet suspension and cell-free medium (37).
# as §1
smiles,measurement,setting,value
"CCCCC/C=C\CC1CC1[C@@H](O)/C=C\C/C=C\CCCC(=O)OC (stereo partly drawn) [PBT-3, 10(S)-hydroxy-11,12-cyclopropyl-eicosa-5Z,8Z,14Z-trienoic acid methyl ester]",inhibition of formation of tritiated TxB2 from [3H]-PGH2,[1],inhibitory action
same,"Plase A2 enzyme activity (% of control values, mean ± SD)",[2]; PBT-3 0.05 μM,100.0 ± 6.9^NS % of control
same,"Plase A2 enzyme activity (% of control values, mean ± SD)",[2]; PBT-3 0.30 μM,91.9 ± 5.6^NS % of control
same,"Plase A2 enzyme activity (% of control values, mean ± SD)",[2]; PBT-3 0.60 μM,89.5 ± 15.6^NS % of control
same,"Plase A2 enzyme activity (% of control values, mean ± SD)",[2]; PBT-3 3.00 μM,120.8 ± 18.3^NS % of control
same,"inhibition of Plase A2, in words","[2]; relatively large amounts of PBT-3, about 3-4 log doses greater than required to inhibit the TP receptor","Neither COX-1, COX-2,12-LOX nor Plase A2 was inhibited"
same,IC50,"[3]; Homo sapiens, Platelet, washed human platelets, collagen 2 μg, read-out: IC50 for inhibition of collagen-evoked aggregation",~800 nM
same,inhibition of collagen-evoked aggregation,"[3]; single dose 1 μg added 2 min prior to collagen (2 μg), 350×10^6 washed human platelets in 0.5 ml","inhibited the collagen effect, with PBT-3 being the most potent"
